According to patent publication US20070254914A1, “Low-concentration atropine solution for preventing myopia progression and preparing method thereof” (Non-Profit Organization Chang Gung Memorial Hospital, priority 2006, published 2007):
Where a name gives a salt, the structure may show the parent alone. Read-outs that look alike come from different tables or passages of the source.

Experiments:
mydriasis phenomenon = assay: durations of mydriasis phenomenon in administration of different ingredients for preventing myopia progression; type: in vivo, human
Myopic Children = details: Shin's study 1999, cited from earlier work
patients (photophobia) = assay: photophobia ratios with administration of different atropine concentrations; type: in vivo, human
Source text: According to following Table 6, patients treated with 0.05% (w/w) atropine solution suffered the photophobia in a lower ratio in comparison with ones treated with 0.1% (w/w) atropine solution.

[1] = test system: patients (myopia progression); assay: study of the present invention in 2006: myopia progression in patients treated with 0.05% atropine solution; type: in vivo, human; details: for Increased diopter (D) per year: 0.05% (w/w) atropine solution
Source text: With regard to Table 2, 21 patients (42 eyes) were subject in the treatment group and 36 patients were subject in the control group. All patients are residents in southern Taiwan. Male-female ratios in the treatment group and the control group were respectively 12:9 and 18:18.
Wherein, an average age in the treatment group was 8.38±1.47 years old (range from 6 to 12 years old) and an average age in the control group was 8.11±1.12 years old (range from 6 to 12 years old).
Treating periods of the treatment group and the control group in average are respectively 19.95±9.04 months and 21.47±10.02.

[2] = test system: patients (pupil diameter); assay: mydriasis phenomenon (pupil diameter) after administration of different atropine concentrations; type: in vivo, human
[3] = test system: patients (accommodation capability of eyes); assay: influences on accommodation capability with administration of different atropine concentrations; type: in vivo, human
Description: Moreover, the myopia exacerbation also substantially relates to visual distance during near working that the patient continuously overuses high accommodation capability of eyes.
With regard to Table 4, 21 patients were treated with 0.05% (w/w) atropine solution in a first treatment group, 9 patients were treated with 0.1% (w/w) atropine solution in a second treatment group and 6 patients were treated with blank solution in the control group. Male-female ratios in the treatment groups and the control group were respectively […] in the first treatment group, 5:4 in the second treatment group and 3:3 in the control group.
Wherein, average ages were respectively 9.4±1.7 years old in the first treatment group, 11±1.7 years old in the second treatment group and 10±2 years old in the control group.
Treating periods of the treatment groups in average were respectively 22.43±12.9 months in the first treatment group and 25.88±12.47 months in the second treatment group.
Observation timing after applying the atropine solutions were respectively 16.37±2.53 hours in the first treatment group and 17.11±1.9 hours in the second treatment group.

[4] = marketed concentrations as listed in Table 7 (Soln/Ointment 0.5%-3%)

With `CN(C)CCOC(=O)C(c1ccccc1)C1(O)CCCC1` (stereo not shown) [Cyclopentolate Hydrochloride] the Duration of mydriasis (mydriasis phenomenon; human, in vivo) was 2 days and the “Occurring time (mydriasis)” value (mydriasis phenomenon; human, in vivo) was 30 to 60 min.
With `CN1[C@@H]2CC[C@H]1C[C@@H](OC(=O)C(CO)c1ccccc1)C2` (stereo partly shown) [Atropine sulfate] the “Occurring time (mydriasis)” value (mydriasis phenomenon; Soln, 0.05%) was 45 to 120 min, the Duration of mydriasis (mydriasis phenomenon; Soln, 0.05% (w/w)) was 0.5 to 0.75 days and the Duration of mydriasis (mydriasis phenomenon; [4]) was 7 to 14 days. For the same compound, the “Occurring time (mydriasis)” value (mydriasis phenomenon; [4]) was 45 to 120 min.
In the case of `CN1[C@@H]2CC[C@H]1C[C@@H](OC(=O)C(CO)c1ccccc1)C2` (stereo partly shown) [Atropine, atropine], the Myopia progression (Myopic Children; 0.1% atropine solution) is listed as 0.47 diopter/yr, the Myopia progression (Myopic Children; 0.25% atropine solution) is listed as 0.45 diopter/yr and the Myopia progression (Myopic Children; 0.5% atropine solution) is listed as 0.04 diopter/yr. The Photophobia ratio (patients (photophobia); 0.05% atropine solution) was 66.67%, the Photophobia ratio (patients (photophobia); 0.1% atropine solution) was 85.71% and the Duration of mydriasis (mydriasis phenomenon; 1% (w/w) atropine solution) was 7 to 14 days. The Duration of mydriasis (mydriasis phenomenon; Soln, 0.05% (w/w), listed as atropine) was 0.5 to 0.75 days, the “Increased diopter (D) per year” value ([1]; 1st (yearly follow-up)) was 0.34(D/yr) and the “Increased diopter (D) per year” value ([1]; 2nd (yearly follow-up)) was 0.32(D/yr). For the same compound, the “Increased diopter (D) per year” value ([1]; 3rd (yearly follow-up)) was 0.14(D/yr), the “Increased diopter (D) per year” value ([1]; All (average)) was 0.29(D/yr) and the Myopia progression ([1]; 0.05% atropine solution, 21 patients (42 eyes), 6 to 12 years old, treating period 19.95±9.04 months) was 0.28(diopter/yr). The Pupil diameter ([2]; 0.05% atropine solution) was 5.52 mm, the Pupil diameter ([2]; 0.1% atropine solution) was 6.10 mm and the Accommodation capability ([3]; 0.05% atropine solution, observed 16.37±2.53 hours after applying, treating period 22.43±12.9 months) was 2.45(D). For the same compound, the Accommodation capability ([3]; 0.1% atropine solution, observed 17.11±1.9 hours after applying, treating period 25.88±12.47 months) was 2.22(D).
